# Results reported in patent US10512634B2, “Benzimidazole derivates useful as inhibitors of mammalian histone deacetylase activity” (KANCERA AB, priority 2015, dated 2019).
# Where two headings read alike, the source gives them in different places.
# Columns and labels:
# HDAC6 = HDAC6 (Homo sapiens (Human), UniProt Q9UBN7); assay: HDAC in vitro enzymatic assay (fluorescence); format: biochemical
# Description: Biological Tests Method for Measurement of Enzymatic Activity of HDACs Materials & Methods
# All Examples were tested in HDAC1, 2, 3, 6 and 8 in vitro enzymatic assays. The assay principle is well known (Hauser et al. 2009, Bradner et al. 2010) and all necessary reagents like enzymes, substrates, developer and reference compounds are commercially available (see e.g. BPS Biosciences http://www.bpsbioscience.com/). A series of dilutions of the compounds were prepared with a top concentration of 200 μM (2 μM for HDAC6). The enzymatic reactions were conducted in a mixture containing assay buffer, bovine serum albumin, HDAC substrate, and a test compound. After enzymatic reaction, developer was added and after an additional incubation time, fluorescence intensity was measured at an excitation wavelength of 360 nm and an emission wavelength of 460 nm. A selection of the Examples were tested in a full HDAC panel containing HDAC1, 2, 3, 4, 5, 6, 7, 8, 9, 10 and 11 in vitro enzymatic assays. The tests were performed as above except that a series of dilutions of the compounds were prepared with a top concentration of 10 μM for all HDACs.
# HDAC1 = HDAC1 (Homo sapiens (Human), UniProt Q13547); assay: HDAC in vitro enzymatic assay (fluorescence); conditions: read-out: IC50 HDAC 1; full HDAC panel; top concentration 10 μM
# HDAC1, sequence (Q13547 whole entry): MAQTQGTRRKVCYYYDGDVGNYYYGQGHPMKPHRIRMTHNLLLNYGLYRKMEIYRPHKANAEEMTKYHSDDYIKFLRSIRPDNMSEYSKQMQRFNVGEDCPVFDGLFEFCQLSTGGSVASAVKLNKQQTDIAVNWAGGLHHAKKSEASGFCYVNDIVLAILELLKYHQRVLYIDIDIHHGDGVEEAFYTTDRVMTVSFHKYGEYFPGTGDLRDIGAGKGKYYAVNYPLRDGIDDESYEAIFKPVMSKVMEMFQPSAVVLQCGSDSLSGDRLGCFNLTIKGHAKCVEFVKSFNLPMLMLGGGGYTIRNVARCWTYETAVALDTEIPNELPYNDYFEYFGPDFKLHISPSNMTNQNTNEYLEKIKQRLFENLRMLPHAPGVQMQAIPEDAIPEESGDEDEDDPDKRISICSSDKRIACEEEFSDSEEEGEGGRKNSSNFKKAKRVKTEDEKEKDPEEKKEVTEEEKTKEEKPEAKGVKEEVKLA
# HDAC2 = HDAC2 (Homo sapiens (Human), UniProt Q92769); assay: HDAC in vitro enzymatic assay (fluorescence); conditions: read-out: IC50 HDAC2; full HDAC panel; top concentration 10 μM
# HDAC2, sequence (Q92769 whole entry): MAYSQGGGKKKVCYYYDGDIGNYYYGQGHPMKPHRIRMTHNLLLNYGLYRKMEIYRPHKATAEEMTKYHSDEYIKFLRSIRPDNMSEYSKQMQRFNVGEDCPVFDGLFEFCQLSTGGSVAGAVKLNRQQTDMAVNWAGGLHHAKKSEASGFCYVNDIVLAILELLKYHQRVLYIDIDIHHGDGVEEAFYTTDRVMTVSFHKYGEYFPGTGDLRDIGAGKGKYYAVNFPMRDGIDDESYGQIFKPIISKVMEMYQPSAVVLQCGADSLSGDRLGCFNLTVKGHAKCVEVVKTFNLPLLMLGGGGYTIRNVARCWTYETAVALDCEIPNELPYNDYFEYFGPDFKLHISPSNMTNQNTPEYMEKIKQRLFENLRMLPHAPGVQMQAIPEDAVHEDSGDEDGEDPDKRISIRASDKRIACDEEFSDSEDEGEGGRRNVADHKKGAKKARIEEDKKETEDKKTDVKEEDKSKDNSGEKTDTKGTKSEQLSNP
# HDAC3 = HDAC3 (Homo sapiens (Human), UniProt O15379); assay: HDAC in vitro enzymatic assay (fluorescence); conditions: read-out: IC50 HDAC3; full HDAC panel; top concentration 10 μM
# HDAC8 = HDAC8 (Homo sapiens (Human), UniProt Q9BY41); assay: HDAC in vitro enzymatic assay (fluorescence); conditions: read-out: IC50 HDAC8; full HDAC panel; top concentration 10 μM
# HDAC8, sequence (Q9BY41 whole entry): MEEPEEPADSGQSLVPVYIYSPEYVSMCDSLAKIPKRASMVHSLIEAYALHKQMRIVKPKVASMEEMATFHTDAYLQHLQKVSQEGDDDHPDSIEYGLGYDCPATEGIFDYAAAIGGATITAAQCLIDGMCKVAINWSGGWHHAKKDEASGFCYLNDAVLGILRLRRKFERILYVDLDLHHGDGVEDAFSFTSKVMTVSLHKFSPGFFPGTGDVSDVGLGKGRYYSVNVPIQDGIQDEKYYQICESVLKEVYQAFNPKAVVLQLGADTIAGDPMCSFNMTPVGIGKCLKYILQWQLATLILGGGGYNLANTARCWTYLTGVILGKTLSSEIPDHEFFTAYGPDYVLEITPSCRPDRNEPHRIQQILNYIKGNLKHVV
# HDAC4 = HDAC4 (Homo sapiens (Human), UniProt P56524); assay: HDAC in vitro enzymatic assay (full HDAC panel); conditions: read-out: IC50 HDAC4, top concentration 10 μM
# HDAC4, sequence (P56524 whole entry): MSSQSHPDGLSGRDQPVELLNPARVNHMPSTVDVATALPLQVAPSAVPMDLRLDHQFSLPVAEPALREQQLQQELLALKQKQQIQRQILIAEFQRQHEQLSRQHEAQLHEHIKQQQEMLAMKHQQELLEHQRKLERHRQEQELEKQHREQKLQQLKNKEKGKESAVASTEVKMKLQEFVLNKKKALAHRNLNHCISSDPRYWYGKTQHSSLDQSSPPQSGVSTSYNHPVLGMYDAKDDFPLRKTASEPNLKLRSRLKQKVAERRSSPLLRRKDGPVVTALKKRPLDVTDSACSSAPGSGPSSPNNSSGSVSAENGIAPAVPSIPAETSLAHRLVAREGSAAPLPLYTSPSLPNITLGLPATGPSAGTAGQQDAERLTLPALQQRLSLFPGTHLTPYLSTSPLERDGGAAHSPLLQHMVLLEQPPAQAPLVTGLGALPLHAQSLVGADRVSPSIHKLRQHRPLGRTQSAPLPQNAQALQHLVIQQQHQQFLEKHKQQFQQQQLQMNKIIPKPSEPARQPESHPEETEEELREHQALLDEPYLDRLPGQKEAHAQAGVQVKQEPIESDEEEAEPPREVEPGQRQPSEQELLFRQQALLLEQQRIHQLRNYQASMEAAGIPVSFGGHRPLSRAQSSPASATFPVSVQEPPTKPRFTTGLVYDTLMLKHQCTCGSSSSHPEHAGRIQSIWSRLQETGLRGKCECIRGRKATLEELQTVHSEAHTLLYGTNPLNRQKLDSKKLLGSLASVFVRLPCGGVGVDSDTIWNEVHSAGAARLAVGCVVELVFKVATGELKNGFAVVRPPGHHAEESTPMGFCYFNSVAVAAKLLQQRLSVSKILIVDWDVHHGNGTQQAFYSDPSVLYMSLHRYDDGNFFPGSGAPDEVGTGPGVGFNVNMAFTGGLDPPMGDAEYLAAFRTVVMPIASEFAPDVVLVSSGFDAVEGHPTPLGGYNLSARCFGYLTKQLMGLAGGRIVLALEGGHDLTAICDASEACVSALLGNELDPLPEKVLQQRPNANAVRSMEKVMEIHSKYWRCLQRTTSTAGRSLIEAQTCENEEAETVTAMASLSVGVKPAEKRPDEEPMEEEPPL
# HDAC5 = HDAC5 (Homo sapiens (Human), UniProt Q9UQL6); assay: HDAC in vitro enzymatic assay (full HDAC panel); conditions: read-out: IC50 HDAC5, top concentration 10 μM
# HDAC5, sequence (Q9UQL6 whole entry): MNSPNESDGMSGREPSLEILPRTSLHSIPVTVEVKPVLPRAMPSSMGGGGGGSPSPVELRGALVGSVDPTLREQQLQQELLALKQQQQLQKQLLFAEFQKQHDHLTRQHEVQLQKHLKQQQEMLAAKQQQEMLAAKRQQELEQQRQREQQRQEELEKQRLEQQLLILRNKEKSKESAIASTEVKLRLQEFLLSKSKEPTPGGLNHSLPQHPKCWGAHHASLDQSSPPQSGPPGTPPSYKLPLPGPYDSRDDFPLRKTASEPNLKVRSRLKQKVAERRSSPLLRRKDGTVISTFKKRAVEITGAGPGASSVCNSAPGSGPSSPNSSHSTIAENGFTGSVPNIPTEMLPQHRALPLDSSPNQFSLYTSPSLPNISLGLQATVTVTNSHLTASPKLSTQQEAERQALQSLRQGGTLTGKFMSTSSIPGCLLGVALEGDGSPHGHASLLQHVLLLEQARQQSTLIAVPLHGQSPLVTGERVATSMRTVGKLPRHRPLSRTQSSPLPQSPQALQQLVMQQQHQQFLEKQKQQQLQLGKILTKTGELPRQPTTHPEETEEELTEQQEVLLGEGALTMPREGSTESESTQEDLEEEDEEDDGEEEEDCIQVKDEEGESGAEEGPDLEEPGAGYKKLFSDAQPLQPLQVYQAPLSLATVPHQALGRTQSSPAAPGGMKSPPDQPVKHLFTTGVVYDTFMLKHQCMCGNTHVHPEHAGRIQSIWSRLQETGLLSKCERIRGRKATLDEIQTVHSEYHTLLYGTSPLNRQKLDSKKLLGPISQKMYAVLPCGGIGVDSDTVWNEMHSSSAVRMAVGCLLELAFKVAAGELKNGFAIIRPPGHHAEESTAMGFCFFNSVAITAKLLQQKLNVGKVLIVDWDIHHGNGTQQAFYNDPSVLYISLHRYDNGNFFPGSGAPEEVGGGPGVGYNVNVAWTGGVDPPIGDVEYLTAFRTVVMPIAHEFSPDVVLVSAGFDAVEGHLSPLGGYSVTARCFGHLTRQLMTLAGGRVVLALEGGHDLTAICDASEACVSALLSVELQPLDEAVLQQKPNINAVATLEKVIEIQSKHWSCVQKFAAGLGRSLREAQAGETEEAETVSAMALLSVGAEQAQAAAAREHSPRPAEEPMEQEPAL
# HDAC7 = HDAC7 (Homo sapiens (Human), UniProt Q8WUI4); assay: HDAC in vitro enzymatic assay (full HDAC panel); conditions: read-out: IC50 HDAC7, top concentration 10 μM
# HDAC9 = HDAC9 (Homo sapiens (Human), UniProt Q9UKV0); assay: HDAC in vitro enzymatic assay (full HDAC panel); conditions: read-out: IC50 HDAC9, top concentration 10 μM
# HDAC10 = HDAC10 (Homo sapiens (Human), UniProt Q969S8); assay: HDAC in vitro enzymatic assay (full HDAC panel); conditions: read-out: IC50 HDAC10, top concentration 10 μM
# HDAC10, sequence (Q969S8 whole entry): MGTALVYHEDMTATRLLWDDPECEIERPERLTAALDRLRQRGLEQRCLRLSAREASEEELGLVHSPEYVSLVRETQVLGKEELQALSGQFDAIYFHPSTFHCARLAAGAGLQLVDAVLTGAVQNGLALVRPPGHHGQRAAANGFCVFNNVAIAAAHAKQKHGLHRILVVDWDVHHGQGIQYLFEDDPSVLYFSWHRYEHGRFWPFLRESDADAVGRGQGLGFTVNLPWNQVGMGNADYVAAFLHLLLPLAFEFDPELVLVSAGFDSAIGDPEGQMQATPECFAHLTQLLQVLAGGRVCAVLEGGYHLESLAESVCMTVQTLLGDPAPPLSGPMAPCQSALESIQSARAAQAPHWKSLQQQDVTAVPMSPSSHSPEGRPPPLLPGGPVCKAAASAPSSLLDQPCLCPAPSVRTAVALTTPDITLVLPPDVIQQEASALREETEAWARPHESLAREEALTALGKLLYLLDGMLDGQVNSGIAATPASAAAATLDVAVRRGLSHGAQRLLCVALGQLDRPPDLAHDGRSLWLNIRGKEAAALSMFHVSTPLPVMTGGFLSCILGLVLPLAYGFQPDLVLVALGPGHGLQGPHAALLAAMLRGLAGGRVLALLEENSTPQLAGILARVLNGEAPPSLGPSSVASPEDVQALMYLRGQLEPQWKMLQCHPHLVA
# HDAC11 = HDAC11 (Homo sapiens (Human), UniProt Q96DB2); assay: HDAC in vitro enzymatic assay (full HDAC panel); conditions: read-out: IC50 HDAC11, top concentration 10 μM
# HDAC11, sequence (Q96DB2 whole entry): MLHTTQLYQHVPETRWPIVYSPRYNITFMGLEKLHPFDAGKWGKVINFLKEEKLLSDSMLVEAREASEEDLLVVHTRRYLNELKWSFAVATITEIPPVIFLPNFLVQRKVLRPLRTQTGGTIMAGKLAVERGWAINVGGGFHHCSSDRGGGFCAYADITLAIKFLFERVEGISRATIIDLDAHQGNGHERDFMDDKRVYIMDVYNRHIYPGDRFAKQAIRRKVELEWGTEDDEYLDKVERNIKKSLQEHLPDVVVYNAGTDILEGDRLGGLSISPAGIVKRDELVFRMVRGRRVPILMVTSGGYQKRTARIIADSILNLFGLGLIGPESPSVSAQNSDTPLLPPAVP
smiles,measurement,setting,value
"O=C(NO)c1ccc2nc(-c3ccccc3C(F)(F)F)[nH]c2c1 [Example 18, N-hydroxy-2-[2-(trifluoromethyl)phenyl]-1H-benzimidazole-6-carboxamide]",IC50,"HDAC6; full HDAC panel, top concentration 10 μM, read-out: IC50 HDAC6",0.077 µM
same,IC50,"HDAC6; top concentration 2 μM, read-out: IC50 values for inhibition of HDAC6",0.077 µM
same,IC50,HDAC1,> 10 µM
same,IC50,HDAC2,> 10 µM
same,IC50,HDAC3,3 µM
same,IC50,HDAC8,> 10 µM
same,IC50,HDAC4,> 10 µM
same,IC50,HDAC5,> 10 µM
same,IC50,HDAC7,9.2 µM
same,IC50,HDAC9,> 10 µM
same,IC50,HDAC10,8.6 µM
same,IC50,HDAC11,> 10 µM
